Where only a bound is given, the exact number is not on record here.

Holding throughout (assay type): biochemical
For one assay, the target named is Pim-2 (Homo sapiens (Human), UniProt Q9P1W9). Description: Pim-2 kinase assay. The following applies: 1 mM ATP; read-out: Pim2 IC50. The method, then: Pim-2 kinase assay—20 μL reactions were run in white 384 well polystyrene plates dotted with 0.8 μL compound/DMSO in the assay buffer (50 mM Tris, pH 7.5, 0.01% Tween-20, 5 mM mgCl2, 0.01% BSA, 5 mM DTT), containing […] Fluorescein-labeled CREBtide peptide substrate (Invitrogen PV3508), 1 mM ATP, and 1 nM enzyme (Invitrogen PV3649) for 2 h at 25° C. Reactions were stopped by addition of 10 μL TR-FRET Dilution Buffer (Invitrogen PV3574) with 30 mM EDTA and 1.5 nM LanthaScreen Tb-CREB pSer133 antibody (Invitrogen PV3566). After 30 min. incubation at room temperature, plates were read on a PHERAstar FS plate reader (BMG Labtech).

A further assay concerns the target Pim-3 (Homo sapiens (Human), UniProt Q86V86). Description: Pim-3 kinase assay. The following applies: 1 mM ATP; read-out: Pim3 IC50. As to the method: Pim-1 and Pim-3 kinase assays-20 μL reactions were run in white 384 well polystyrene plates dotted with 0.8 μL compound/DMSO in the assay buffer (50 mM Tris, pH 7.5, 0.01% Tween-20, 5 mM mgCl2, 0.01% BSA, 5 mM DTT), containing […] Biotin-labeled BAD peptide substrate (AnaSpec 62269), 1 mM ATP, and 2.5 pM (Pim-1, Invitrogen PV3503) or 1.25 pM (Pim-3, Millipore 14-738) enzyme for 1 h at 25° C. Reactions were stopped by addition of 10 μL STOP Buffer (150 mM Tris, pH=7.5, 150 mM NaCl, 75 mM EDTA, 0.01% Tween-20, 0.3% BSA,) supplemented with Phospho-Bad (Ser112) Antibody (Cell Signaling 9291) diluted 666-fold, and Streptavidin donor beads (PerkinElmer 6760002) along with Protein-A acceptor beads (PerkinElmer 6760137) at 15 μg/mL each. Supplementation of the STOP buffer with beads and stopping the reactions were done under reduced light. Prior to the stopping reactions STOP buffer with beads was preincubated for 1 h in the dark at room temperature. After stopping the reactions, plates were incubated for 1 h in the dark at room temperature before reading on a PHERAstar FS plate reader (BMG Labtech) under reduced light.

Another assay concerns the target Pim-1 (Homo sapiens (Human), UniProt P11309). Description: Pim-1 kinase assay. The following applies: 1 mM ATP; read-out: Pim1 IC50. The method, then: Supplementation of the STOP buffer with beads and stopping the reactions were done under reduced light. Prior to the stopping reactions STOP buffer with beads was preincubated for 1 h in the dark at room temperature. After stopping the reactions, plates were incubated for 1 h in the dark at room temperature before reading on a PHERAstar FS plate reader (BMG Labtech) under reduced light.

Pim-2, sequence (Q9P1W9 whole entry): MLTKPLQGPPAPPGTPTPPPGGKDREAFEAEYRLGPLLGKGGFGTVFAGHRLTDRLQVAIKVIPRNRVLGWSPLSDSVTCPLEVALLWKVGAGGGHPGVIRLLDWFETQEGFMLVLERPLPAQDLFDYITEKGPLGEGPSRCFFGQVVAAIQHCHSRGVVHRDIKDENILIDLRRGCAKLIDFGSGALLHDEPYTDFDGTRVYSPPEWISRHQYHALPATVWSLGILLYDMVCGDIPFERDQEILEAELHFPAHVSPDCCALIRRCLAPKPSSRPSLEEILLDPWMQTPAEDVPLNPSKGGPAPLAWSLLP
Pim-1, sequence (P11309 whole entry): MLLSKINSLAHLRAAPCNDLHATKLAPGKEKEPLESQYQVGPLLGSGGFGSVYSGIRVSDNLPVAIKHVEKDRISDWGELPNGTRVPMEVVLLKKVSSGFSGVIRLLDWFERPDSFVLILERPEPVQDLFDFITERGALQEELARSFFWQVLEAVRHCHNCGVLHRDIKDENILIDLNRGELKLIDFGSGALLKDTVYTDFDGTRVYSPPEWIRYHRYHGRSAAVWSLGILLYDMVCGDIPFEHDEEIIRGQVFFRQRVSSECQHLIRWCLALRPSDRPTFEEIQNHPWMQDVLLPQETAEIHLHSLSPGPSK

As usually defined, the IC50 is the midpoint of a concentration-inhibition curve. For the compound `C[C@@H]1C[C@H](N)CN(c2ccncc2NCc2ccc(F)c(-c3c(F)cc(N4CCCC(F)C4)cc3F)n2)C1` (stereo partly drawn) [Example 71, 4-[(3S,5R)-3-Amino-5-methylpiperidin-1-yl]-N-({6-[2,6-difluoro-4-(3-fluoropiperidin-1-yl)phenyl]-5-fluoropyridin-2-yl}methyl)pyridin-3-amine], the values for the IC50 on Pim-2, on Pim-3 and at Pim-1 were ≤ 100 nM, ≤ 10 nM and < 10 nM, respectively.
For `C[C@@H]1C[C@H](N)CN(c2ccncc2NCc2ccc(F)c(-c3c(F)cc(C4(O)CC4)cc3F)n2)C1` [Example 10, 1-(4-{6-[({4-[(3S,5R)-3-Amino-5-methylpiperidin-1-yl]pyridin-3-yl}amino)methyl]-3-fluoropyridin-2-yl}-3,5-difluorophenyl)cyclopropanol] the same measures were ≤ 100 nM, ≤ 10 nM and < 10 nM.
As to `C[C@H]1CN(c2ccncc2NCc2cccc(-c3c(F)cccc3F)n2)C[C@@H](N)[C@@H]1O` [Example 28, (3R,4R,5S)-3-Amino-1-[3-({[6-(2,6-difluorophenyl)pyridin-2-yl]methyl}amino)pyridin-4-yl]-5-methylpiperidin-4-ol], the IC50 at Pim-2 was 100 to 1000 nM; at Pim-3, ≤ 10 nM; at Pim-1, < 10 nM.
The matching figures for `C[C@@H]1C[C@H](N)CN(c2ccncc2NCc2ccc(F)c(-c3c(F)cc4ncccc4c3F)n2)C1` [Example 38, 4-[(3S,5R)-3-Amino-5-methylpiperidin-1-yl]-N-{[6-(5,7-difluoroquinolin-6-yl)-5-fluoropyridin-2-yl]methyl}pyridin-3-amine]: 100 to 1000 nM, ≤ 10 nM and < 10 nM.
For `C[C@@H]1C[C@H](N)CN(c2ccncc2NCc2ccc3ccc(-c4ccc5c(c4)OCC5)cc3n2)C1` [Example 91, 4-[(3S,5R)-3-Amino-5-methylpiperidin-1-yl]-N-{[7-(2,3-dihydro-1-benzofuran-6-yl)quinolin-2-yl]methyl}pyridin-3-amine] the same measures were 100 to 1000 nM, ≤ 10 nM and < 10 nM.
For `C[C@@H]1C[C@H](N)CN(c2ccncc2NCc2ccc(F)c(-c3c(F)cc(N4CC(C)(O)C4)cc3F)n2)C1` [Example 72, 1-(4-{6-[({4-[(3S,5R)-3-Amino-5-methylpiperidin-1-yl]pyridin-3-yl}amino)methyl]-3-fluoropyridin-2-yl}-3,5-difluorophenyl)-3-methylazetidin-3-ol] the same measures were ≤ 100 nM, ≤ 10 nM and < 10 nM.
For the compound `C[C@H]1CN(c2ccncc2NCc2ccc(F)c(C3=CCCCC3)n2)C[C@@H](N)[C@@H]1O` [Example 57], the IC50 on Pim-2 was 100 to 1000 nM; on Pim-3 it was ≤ 10 nM; at Pim-1, < 10 nM.
For `C[C@@H]1C[C@H](N)CN(c2ccncc2NCc2ccc(F)c(-c3c(F)cc(CN4CC[C@H](C#N)C4)cc3F)n2)C1` [Example 54, (S)-1-(4-(6-((4-((3S,5R)-3-amino-5-methylpiperidin-1-yl)pyridin-3-ylamino)methyl)-3-fluoropyridin-2-yl)-3,5-difluorobenzyl)pyrrolidine-3-carbonitrile] the same measures were ≤ 100 nM, ≤ 10 nM and < 10 nM.
Regarding `Nc1cc(F)c(-c2c(F)cccc2F)nc1CNc1cnccc1N1C[C@@H](N)C[C@@H](C(F)(F)F)C1` [Example 109, 2-[({4-[(3S,5R)-3-Amino-5-(trifluoromethyl)piperidin-1-yl]pyridin-3-yl}amino)methyl]-6-(2,6-difluorophenyl)-5-fluoropyridin-3-amine], the IC50 at Pim-2 is ≤ 100 nM; on Pim-3, ≤ 10 nM; at Pim-1, < 10 nM.
The matching figures for `C[C@H]1CN(c2ccncc2NCc2ccc(F)c(-c3c(F)cccc3F)n2)C[C@@H](N)[C@@H]1O` [Example 14, (3R,4R,5S)-3-Amino-1-[3-({[6-(2,6-difluorophenyl)-5-fluoropyridin-2-yl]methyl}amino)pyridin-4-yl]-5-methylpiperidin-4-ol]: ≤ 100 nM, ≤ 10 nM and < 10 nM.
For `C[C@H]1CN(c2ccncc2NCc2ccc(F)c(-c3c(F)cc(CO)cc3F)n2)C[C@@H](N)[C@@H]1O` [Example 35, (3R,4R,5S)-3-Amino-1-{3-[({6-[2,6-difluoro-4-(hydroxymethyl)phenyl]-5-fluoropyridin-2-yl}methyl)amino]pyridin-4-yl}-5-methylpiperidin-4-ol] the same measures were ≤ 100 nM, ≤ 10 nM and < 10 nM.
For `C[C@H]1CN(c2ccncc2NCc2ccc(F)c(-c3c(F)cc(CN4CC[C@@H](F)C4)cc3F)n2)C[C@@H](N)[C@@H]1O` [Example 46, (3R,4R,5S)-3-amino-1-(3-(((6-(2,6-difluoro-4-(((R)-3-fluoropyrrolidin-1-yl)methyl)phenyl)-5-fluoropyridin-2-yl)methyl)amino)pyridin-4-yl)-5-methylpiperidin-4-ol] the same measures were ≤ 100 nM, ≤ 10 nM and < 10 nM.
As for `C[C@@H]1C[C@H](N)CN(c2c(NCc3ccc(F)c(-c4c(F)cccc4F)n3)cnc3c2CCC3)C1` [Example 89, 4-[(3S,5R)-3-Amino-5-methylpiperidin-1-yl]-N-{[6-(2,6-difluorophenyl)-5-fluoropyridin-2-yl]methyl}-6,7-dihydro-5H-cyclopenta[b]pyridin-3-amine], the IC50 on Pim-2 is 100 to 1000 nM; at Pim-3 it was ≤ 10 nM; on Pim-1, < 10 nM.
The matching figures for `C[C@@H]1C[C@H](N)CN(c2ccncc2NCc2ccc(F)c(-c3c(F)cc(C(C)(C)C#N)cc3F)n2)C1` [Example 24A, 2-(4-{6-[({4-[(3S,5R)-3-Amino-5-methylpiperidin-1-yl]pyridin-3-yl}amino)methyl]-3-fluoropyridin-2-yl}-3,5-difluorophenyl)-2-methylpropanenitrile]: ≤ 100 nM, ≤ 10 nM and < 10 nM.
For `C[C@H]1CN(c2ccncc2NCc2ccc(F)c(-c3c(F)cc(CN4CC[C@H](F)C4)cc3F)n2)C[C@@H](N)[C@@H]1O` [Example 47, (3R,4R,5S)-3-amino-1-(3-(((6-(2,6-difluoro-4-(((S)-3-fluoropyrrolidin-1-yl)methyl)phenyl)-5-fluoropyridin-2-yl)methyl)amino)pyridin-4-yl)-5-methylpiperidin-4-ol] the same measures were ≤ 100 nM, ≤ 10 nM and < 10 nM.
In the case of `C[C@H]1CN(c2ccncc2NCc2ccc(F)c(-c3c(F)cc(C4CCOCC4)cc3F)n2)C[C@@H](N)[C@@H]1O` [Example 63, (3R,4R,5S)-3-Amino-1-{3-[({6-[2,6-difluoro-4-(tetrahydro-2H-pyran-4-yl)phenyl]-5-fluoropyridin-2-yl}methyl)amino]pyridin-4-yl}-5-methylpiperidin-4-ol], the IC50 at Pim-2 is ≤ 100 nM; at Pim-3, ≤ 10 nM; at Pim-1, < 10 nM.
For `N[C@H]1C[C@@H](C(F)(F)F)CN(c2ccncc2NCc2ccc(F)c(-c3c(F)cc(C4CCOCC4)cc3F)n2)C1` [Example 65, 4-((3S,5R)-3-Amino-5-(trifluoromethyl)piperidin-1-yl)-N-((6-(2,6-difluoro-4-(tetrahydro-2H-pyran-4-yl)phenyl)-5-fluoropyridin-2-yl)methyl)pyridin-3-amine] the same measures were ≤ 100 nM, ≤ 10 nM and < 10 nM.
The matching figures for `C[C@@H]1C[C@H](N)CN(c2ccnc(F)c2NCc2ccc(F)c(-c3c(F)cccc3F)n2)C1` [Example 110, 4-[(3S,5R)-3-Amino-5-methylpiperidin-1-yl]-N-{[6-(2,6-difluorophenyl)-5-fluoropyridin-2-yl]methyl}-2-fluoropyridin-3-amine]: ≤ 100 nM, ≤ 10 nM and < 10 nM.
For `C[C@H]1CN(c2ccncc2NCc2ccc(F)c(-c3ccccc3F)n2)C[C@@H](N)[C@@H]1O` [Example 18, (3R,4R,5S)-3-Amino-1-(3-(((5-fluoro-6-(2-fluorophenyl)pyridin-2-yl)methyl)amino)pyridin-4-yl)-5-methylpiperidin-4-ol] the same measures were 100 to 1000 nM, ≤ 10 nM and < 10 nM.

Source of the values: US9802918B2, “Pyridineamine compounds useful as Pim kinase inhibitors” (Incyte Corporation, priority 2015, dated 2017).
